This note sets out measurements from the METLIN SMRT retention time set (Domingo-Almenara et al. 2019).

A short description of this series: gradient 5% acetonitrile 3 min, to 50% in 2 min, to 85% in 15 min, held 3 min, 100 µL/min. As to conditions: column: Zorbax Extend-C18 2.1 x 50 mm; eluents: water / acetonitrile, 0.1% formic acid. The procedure, abridged:
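The system's dead and dwell volumes were 40 μL and 900 μL, with a Zorbax Extend-C18 column (2.1 × 50 mm, 1.8 μm) run at 100 μL/min in water and acetonitrile containing 0.1% formic acid each. Pure standards were analyzed in mixtures of ~100 molecules by HPLC–quadrupole time-of-flight mass spectrometry in positive and negative ionization mode. Retention time was assigned from computationally picked, manually inspected adduct peaks.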
`CSc1nc2c(c(=O)n1-c1ccc([N+](=O)[O-])cc1)SCC2` had an RP-LC retention time of 816 s.

The compound `COC(=O)c1cc(C2CC2)nc2c1c(=O)n(Cc1ccccc1)c(=O)n2C` had an RP-LC retention time of 1030 s.

For `Cc1nnc(-c2ccc3ccn(CC(=O)N4CCCc5ccccc54)c3c2)o1`, the RP-LC retention time stood at 814 s.

Regarding `Cc1ccc(F)cc1S(=O)(=O)N1CCN(c2cnn3c(C)nnc3c2)CC1`, the RP-LC retention time stood at 616 s.

`O=C(O)c1nnn(-c2cccc(Cl)c2)c1C(F)(F)F` yielded an RP-LC retention time of 806 s.

As for `NC(=O)c1cc(N2CC2)c([N+](=O)[O-])cc1[N+](=O)[O-]`, the RP-LC retention time came out at 650 s.

As to `CC(C)c1ccc(-c2ccnc3c(C(=O)NCCCc4ccco4)cnn23)cc1`, the RP-LC retention time was 1180 s.

`CCN(C(=O)Cn1ccc2c(=O)n(C)c(=O)n(C)c21)c1cccc(Cl)c1` yielded an RP-LC retention time of 747 s.

Regarding `COc1cccc(-n2c(=O)c(C(=O)Nc3ccc(F)c(Cl)c3)c(O)c3cccnc32)c1`, the RP-LC retention time was 1250 s.

`Cc1nc(NCCNC(=O)c2cccc(C(F)(F)F)c2)cc(N2CCOCC2)n1` yielded an RP-LC retention time of 588 s.

`Clc1nnc(N2CCSCC2)c2ccccc12` yielded an RP-LC retention time of 845 s.

For `CCc1cccc(NC(=O)C2CCCN(c3ncnc4c3nc3n4CCCCC3)C2)c1` (stereo not given), the RP-LC retention time came out at 758 s.

On to `CCOC[C@@H]1CC(F)(F)CN1C1CCN(Cc2ccc3cc[nH]c3c2)CC1`, for which the RP-LC retention time is 656 s.

With `CCC1CN2C=Nc3oc(C)c(C(=O)Nc4ccc(F)cc4Br)c3C2=N1` (stereo not given), the RP-LC retention time amounted to 682 s.

Regarding `COc1cccc(-c2csc(-c3nnn(-c4cccc(Cl)c4)c3N)n2)c1`, the RP-LC retention time amounted to 1170 s.

For `O=C(c1cccc(Cl)c1)N1CCc2nc(-c3ccc(Cl)cc3)ncc2C1`, the RP-LC retention time came to 1140 s.

With `CCn1ccc(C(=O)Nc2c3c(nn2C)CCC3)n1`, the RP-LC retention time came to 621 s.

The compound `Cn1c(C2CCN(S(=O)(=O)c3ccc(F)c(Cl)c3)CC2)cc(=O)n2nccc12` gave an RP-LC retention time of 722 s.

Regarding `CCn1nccc1C(=O)N1CCCC1c1ccccc1F` (stereo not given), the RP-LC retention time worked out at 840 s.

With `CCCN(C)c1nccn2c(=O)n(CC(=O)Nc3ccc(C)cc3)nc12`, the RP-LC retention time turned out to be 683 s.

In turn, `O=C(Nc1ccc(Br)cc1)C1CCCN(c2ccnc(-c3ccc(F)cc3)n2)C1` (stereo not given) registered an RP-LC retention time of 775 s.

Turning to `O=S(=O)(Cc1ccc(Cl)cc1)N1CCc2nc(-c3ccc(F)cc3)ncc2C1`, the RP-LC retention time came out at 1100 s.

For the compound `O=C(c1cn[nH]c1)N1CCCC1Cc1noc(C2CCCC2)n1` (stereo not given), the RP-LC retention time came to 692 s.

In the case of `Cc1cnc(C(=O)N2CCC(c3noc(-c4cnccn4)n3)C2)cn1` (stereo not given), the RP-LC retention time amounted to 630 s.

Compound `Cc1ccc2nc(SCC(=O)N3CCCCC3)[nH]c2c1` had an RP-LC retention time of 590 s.

With `Cc1sc2ccn(C)c(=O)c2c1C(=O)NCc1ccc(OC(C)C)cc1`, the RP-LC retention time was found to be 833 s.

`O=C(Cc1csc2ccccc12)N1CCN(C(=O)Nc2ccccc2Cl)CC1` gave an RP-LC retention time of 889 s.

For the compound `Cc1noc(C2CN(C(=O)CCC(C)C)CC23CCOCC3)n1` (stereo not given), the RP-LC retention time worked out at 678 s.

Consider `Cc1ccsc1C(=O)N1CCC(N2C(=O)C(OCC3CC3)C23CCCCC3)CC1` (stereo not given), for which the RP-LC retention time is 1020 s.

Compound `COC(=O)c1cc(OCC(=O)Nc2cccc(OC)c2)c2cc(OC)ccc2n1` had an RP-LC retention time of 811 s.

In the case of `CC1CN=C2C=C(N3CCN(C(=O)Nc4ccccc4C(F)(F)F)CC3)N=CN21` (stereo not given), the RP-LC retention time was 615 s.

Regarding `Cc1nc2cc(N3CCC(C(=O)Nc4ccc(N5CCOCC5)cc4)CC3)cnc2nc1C`, the RP-LC retention time stood at 649 s.

In turn, `CCn1cc(CCN2CCN(C(=O)Cc3cccs3)CC2)c2cccnc21` returned an RP-LC retention time of 590 s.

As to `COc1ccc(-c2ccnn2-c2ccc(SCC(=O)Nc3cc(C)ccc3C)nn2)cc1`, the RP-LC retention time amounted to 1140 s.

Compound `CCC(CC)C(=O)N1CCc2[nH]nc(C(=O)NCCCc3ccccc3)c2C1` came in with an RP-LC retention time of 797 s.

`CCN1CCC2(CC1)OC(=O)C(C)=C2C(=O)NCCCN1CCC(Cc2ccccc2)CC1` gave an RP-LC retention time of 583 s.

In turn, `COc1ccc(CNC2=NCCNC23CCN(S(=O)(=O)c2ccc(C)cc2)CC3)cc1` came in with an RP-LC retention time of 732 s.

As to `Cc1cc2c(cc1C)[n+](=O)c(C(=O)/C=C/c1ccccc1[N+](=O)[O-])c(C)n2[O-]`, the RP-LC retention time came out at 806 s.

In turn, `CCC1CN2C=Nc3oc(C)c(C(=O)Nc4ccc5c(c4)OCO5)c3C2=N1` (stereo not given) registered an RP-LC retention time of 632 s.

As for `CCOC(=O)N1CCN(C(=O)C2CN(c3nc4ccc(OC)cc4s3)C2)CC1`, the RP-LC retention time came out at 650 s.

Turning to `Fc1ccc(C2Cn3nnc(-c4nc(-c5cccc(F)c5)no4)c3CO2)cc1` (stereo not given), the RP-LC retention time stood at 1150 s.

The compound `Cc1ccc(-c2cc(C(=O)N3CCCC3)n(C)c2)cc1` displayed an RP-LC retention time of 965 s.

`O=C(CN1CCN(Cc2ccc(F)cc2)C1=O)NCc1ccc(N2CCCC2)cc1`: the RP-LC retention time came out at 761 s.

`CC(C)n1nccc1-c1csc(S(=O)(=O)N2CCC3(CC2)OCCO3)c1`: the RP-LC retention time came out at 922 s.

For the compound `O=C(c1ccsc1)N1CCCC1Cc1noc(-c2cnccn2)n1` (stereo not given), the RP-LC retention time worked out at 707 s.

Take `CC(C)NC(=O)N1CCCC(CCc2nnc(-c3cnccn3)o2)C1` (stereo not given): the RP-LC retention time is 627 s.

In turn, `Cn1nc(-c2nnc(-c3ccccc3)o2)c2c1CCN(S(=O)(=O)c1ccc(F)c(Cl)c1)C2` came in with an RP-LC retention time of 979 s.

`CC1(C(=O)NCc2ccc(F)cc2)CCCN(C(=O)Nc2ccccc2Br)C1` (stereo not given) registered an RP-LC retention time of 955 s.

In turn, `Cc1ccc(Nc2c(-c3ccc([N+](=O)[O-])cc3)nc3cc(C)ccn23)cc1` registered an RP-LC retention time of 790 s.

The compound `O=C(NCc1ccccc1F)c1ccc2c(c1)nc1n2CCN(C2CCCCC2)C1=O` registered an RP-LC retention time of 788 s.

For the compound `CNC(=O)[C@@H]1CN(C(=O)c2cc(C3CC3)[nH]n2)C[C@H]1c1n[nH]c(C)n1`, the RP-LC retention time worked out at 577 s.

The compound `COc1ccc(NC(=O)c2cn(-c3cc(N4CCCC(C)C4)ncn3)cn2)cc1OC` (stereo not given) displayed an RP-LC retention time of 973 s.

`CC(C)C(=O)Nc1ccc(OCc2cc(C(=O)NC3CCCC3)no2)cc1` had an RP-LC retention time of 837 s.

In turn, `O=C(Cn1cccc1-c1nnc(C2CC2)o1)N1CCN(c2ccccc2)CC1` came in with an RP-LC retention time of 821 s.

The compound `O=c1n(Cc2ccc(F)cc2)nc2c(S(=O)(=O)N3CCc4ccccc4C3)cccn12` registered an RP-LC retention time of 938 s.

Compound `Cc1noc(C)c1CC(=O)NCc1cccnc1Oc1ccccc1` showed an RP-LC retention time of 734 s.

Compound `Cn1nc(-c2nnc(-c3ccccc3)o2)c2c1CCN(S(=O)(=O)c1ccccc1C(F)(F)F)C2` showed an RP-LC retention time of 990 s.

In turn, `Cc1cc(C)n(CCNC(=O)NCc2cccs2)n1` returned an RP-LC retention time of 593 s.

In turn, `CN(C)C(=O)c1cn(C2CN(S(=O)(=O)c3cccc4nsnc34)C2)nn1` came in with an RP-LC retention time of 657 s.

Turning to `COc1cccc(Cn2ccn3nc(-c4ccc5c(c4)OCO5)cc3c2=O)c1`, the RP-LC retention time was 970 s.

Regarding `Cc1cc(=O)n(CC(=O)Nc2ccccc2F)c(-c2ccc(F)cc2)n1`, the RP-LC retention time was 1040 s.

As to `CCN(CCNC(=O)c1cc2c(s1)CN(C(C)C)C2)c1cccc(C)c1`, the RP-LC retention time stood at 573 s.

`CCCCOc1ccc(-c2nc(C3CC(=O)N(c4ccc(Cl)cc4)C3)no2)cc1` (stereo not given) yielded an RP-LC retention time of 1350 s.

`Cc1ccc(N2CCN(C(=O)c3cn(-c4cc(N5CCSCC5)ncn4)cn3)CC2)cc1` came in with an RP-LC retention time of 916 s.

As to `COc1ccccc1N1CCN(c2cc(SCC(=O)NCC3CCCO3)ncn2)CC1` (stereo not given), the RP-LC retention time came to 732 s.

On to `CN(C)c1cccc(C(=O)N2CCC3(CC2)N=C(c2ccccc2)NO3)c1`, for which the RP-LC retention time was found to be 717 s.

Regarding `CCOc1ccc(NC(=O)NCCc2cn(CC)c3ncccc23)cc1`, the RP-LC retention time was 704 s.

Turning to `O=C(NCCc1c[nH]c2ccccc12)C(=O)NCc1cccs1`, the RP-LC retention time is 783 s.

As to `O=C(c1cnccn1)N1CCC(Oc2nc3ccccc3s2)CC1`, the RP-LC retention time was 755 s.

Compound `CN(CCc1noc(-c2ccc(F)cc2)n1)C(=O)Nc1ccccc1Cl` gave an RP-LC retention time of 983 s.

In turn, `CSc1cccc(NC(=O)N2CCCC(C)(C(=O)NCc3ccccc3)C2)c1` (stereo not given) gave an RP-LC retention time of 951 s.

Take `COc1ccc(F)cc1S(=O)(=O)N1CCC2(CC1)c1nccn1CCN2C`: the RP-LC retention time came to 564 s.

Take `CCn1cnc(S(=O)(=O)N2CCC(C(=O)Nc3nc4ccc(OC)cc4s3)CC2)c1`: the RP-LC retention time came to 748 s.

Regarding `O=C(NCCN1CCN(C(=O)c2cc(=O)c3ccccc3o2)CC1)c1ccsc1`, the RP-LC retention time turned out to be 557 s.

`COc1ccc(C(=O)N2CCC(n3c(-c4ccoc4)nc4cccnc43)C2)cc1` (stereo not given): the RP-LC retention time worked out at 659 s.

In turn, `Cc1nnc2sc(-c3cccs3)nn2c1=O` came in with an RP-LC retention time of 664 s.

`COc1ccc(-c2cc(-c3nc4c5sc6nc(C)cc(C)c6c5ncn4n3)[nH]n2)cc1` returned an RP-LC retention time of 1010 s.

In turn, `CC(C)c1cc(C(=O)Nc2ccc(F)c(Cl)c2)nc2ccnn12` returned an RP-LC retention time of 1210 s.

As to `CCOc1ccc(-c2nc(-c3ccc4ncn(CC)c4c3)no2)cc1`, the RP-LC retention time worked out at 829 s.

`COC(=O)c1c(C)oc2ccc(OCC(=O)c3ccc(F)cc3)cc12` displayed an RP-LC retention time of 999 s.
